Reference: patent publication US20040171073A1, “Compounds for modulation of cholesterol transport” (Massachusetts Institute of Technology, priority 2002, published 2004)

Target: T1, murine SR-BI (Mus musculus, UniProt Q61009)
T1 construct: expressed in transfected cells; host or cells: ldlA-7 (LDL receptor deficient Chinese hamster ovary cells)
T1 sequence (Q61009 1-509): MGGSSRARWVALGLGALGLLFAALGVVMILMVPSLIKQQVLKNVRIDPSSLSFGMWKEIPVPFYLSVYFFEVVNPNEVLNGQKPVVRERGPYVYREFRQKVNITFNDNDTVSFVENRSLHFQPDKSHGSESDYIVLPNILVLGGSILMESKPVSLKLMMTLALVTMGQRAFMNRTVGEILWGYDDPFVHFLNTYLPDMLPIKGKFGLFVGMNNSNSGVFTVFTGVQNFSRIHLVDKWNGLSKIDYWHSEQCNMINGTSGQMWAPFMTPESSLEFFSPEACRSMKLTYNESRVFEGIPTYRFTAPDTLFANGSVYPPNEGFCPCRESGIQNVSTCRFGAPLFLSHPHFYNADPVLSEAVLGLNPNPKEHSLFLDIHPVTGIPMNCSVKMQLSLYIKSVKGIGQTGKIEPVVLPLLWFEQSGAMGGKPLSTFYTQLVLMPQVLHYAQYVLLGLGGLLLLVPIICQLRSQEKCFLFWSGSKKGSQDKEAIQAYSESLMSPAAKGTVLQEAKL
Assay: Uptake of DiI from DiI-HDL by ldlA[mSR-BI] cells (high throughput screen and concentration dependence)
Assay type: cell-based

Row | ENDOHDL Test 1 | ENDOHDL Test 2 | SMILES
1 | 0.33 | 0.46 | CCOC(=O)c1c(/N=C/c2ccccc2[N+](=O)[O-])sc2c1CCCC2 [MIT 9952-187]
2 | 0.61 | 0.58 | O=C(Nc1cc2c(cc1C(=O)c1ccccc1)OCCO2)c1ccc(Br)cc1 [MIT 9952-188]
3 | 0.56 | 0.58 | O=C(Nc1cccc(C(F)(F)F)c1)c1cccc(C(=O)Nc2cccc(C(F)(F)F)c2)n1 [MIT 9952-189]
4 | 1.47 | 1.35 | O=C(O)c1ccc2c(c1)C(=O)N(c1ccc(C(=O)OCC(=O)c3ccccc3)cc1)C2=O [MIT 9952-190]
5 | 1.27 | 1.98 | C#CCOC(=O)CCCC(=O)Nc1ccccc1[N+](=O)[O-] [MIT 9952-191]
6 | 0.57 | 0.52 | CCN(CC)S(=O)(=O)c1cc(C(=O)Nc2ccc(Br)cc2)ccc1Br [MIT 9952-192]
7 | 0.66 | 0.69 | Cn1cc(C=O)c2cc(Br)ccc21 [MIT 9952-193]
8 | 0.76 | 0.46 | Cc1cccc(C(=O)N/N=C/c2ccccc2Cl)c1 [MIT 9952-194]
9 | 1.22 | 1.35 | O=C(O/N=C/c1ccc([N+](=O)[O-])o1)c1ccccc1 [MIT 9952-195]
10 | 0.63 | 0.6 | CCCCC1(OC(=O)Nc2ccc(Cl)cc2)CCCCC1 [MIT 9952-196]
11 | 0.58 | 0.71 | CN1CCc2c(c3ccccc3n2-c2ccccc2)C1.Cl [MIT 9952-197]
12 | 0.67 | 0.64 | CO/C(=N\C(NC(=S)Nc1ccc(Br)cc1)C(Cl)(Cl)Cl)c1ccc(C)cc1 (stereo not shown) [MIT 9952-198]
13 | 0.52 | 0.46 | O=C(N/N=C\c1cccn1-c1ccc([N+](=O)[O-])cc1)c1ccccc1 [MIT 9952-199]
14 | 0.69 | 0.67 | Cc1ccc(NC(=S)NC(NC(=O)c2ccccc2Cl)C(Cl)(Cl)Cl)cc1 (stereo not shown) [MIT 9952-201]
15 | 1.23 | 1.11 | O=C(O)C(Cc1ccccc1)N1C(=O)CSC1=S (stereo not shown) [MIT 9952-202]
16 | 0.73 | 0.7 | CO/C(=N\C(NC(=S)Nc1ccccc1)C(Cl)(Cl)Cl)c1ccc(C)cc1 (stereo not shown) [MIT 9952-203]
17 | 0.55 | 0.62 | NS(=O)(=O)c1ccc(N=N/C(=N/Nc2ccc(S(N)(=O)=O)cc2)c2ccccc2)cc1 [MIT 9952-204]
18 | 1.08 | 1.0 | COc1ccc2[nH]cc(CCN3CCOC3=O)c2c1 [MIT 9952-205]
19 | 0.56 | 0.52 | COc1cc2c(-c3ccccc3)c(C)oc2cc1/C=N/NC(N)=S [MIT 9952-206]
20 | 1.28 | 1.19 | Cc1ccc(N2SC(NS(=O)(=O)c3ccc(C)cc3)N=C2c2ccccc2)cc1 (stereo not shown) [MIT 9952-207]
21 | 0.57 | 0.55 | Nc1ccc(C(=O)Nc2ccc(-c3nc4ccc(NC(=O)c5ccc(N)cc5)c(Cl)c4[nH]3)cc2Cl)cc1 [MIT 9952-208]
22 | 0.46 | 0.59 | O=[N+]([O-])c1cccc(/C=N\Nc2nc(Nc3ccc(Cl)cc3)nc(N3CCOCC3)n2)c1 [MIT 9952-209]
23 | 0.59 | 0.56 | CCn1c2ccccc2c2cc(/C=N/NC(N)=S)ccc21 [MIT 9952-211]
24 | 0.57 | 0.49 | COc1ccc2c(c1)c(C(C)=O)c(C)n2-c1ccccc1 [MIT 9952-212]
25 | 0.66 | 0.57 | O=C(Nc1cccc(NC(=O)c2ccccc2Cl)c1)c1cccc([N+](=O)[O-])c1 [MIT 9952-213]
26 | 0.63 | 0.35 | CC(C)(C)c1ccc(C(=O)Nc2cccc(NC(=O)c3cccc([N+](=O)[O-])c3)c2)cc1 [MIT 9952-214]

Row | ENDOHDL Test 1 | ENDOHDL Test 2 | SMILES
27 | 0.57 | 0.53 | CCOC(=O)c1c(NC(=O)c2ccccc2)sc(NC(=O)c2ccccc2)c1C(=O)OCC [MIT 9952-215]
28 | 0.54 | 0.58 | O=C(NC(NC(=S)Nc1ccc2ccccc2c1)C(Cl)(Cl)Cl)c1cccc([N+](=O)[O-])c1 (stereo not shown) [MIT 9952-216]
29 | 0.57 | 0.53 | O=C(NNC(=O)c1cccc2ccccc12)c1ccc(NC(=O)c2cccc3ccccc23)cc1 [MIT 9952-217]
30 | 0.64 | 0.33 | Cc1cc(=O)oc2cc(OCc3ccccc3)c(OCc3ccccc3)cc12 [MIT 9952-218]
31 | 1.13 | 1.25 | CCS(=O)(=O)C(=C(Nc1ccc(OC)cc1)Nc1ccc(OC)cc1)S(=O)(=O)CC [MIT 9952-220]
32 | 0.62 | 0.59 | Nc1c(C(=O)c2ccc(Br)cc2)sc2nc(-c3ccccc3)c3c(c12)CCCC3 [MIT 9952-221]
33 | 0.64 | 0.57 | CCOC(=O)c1c(NC(=O)c2ccccc2C)sc2c1CCCC2 [MIT 9952-223]
34 | 0.6 | 0.5 | Cc1ccc(NC(=O)c2ccc([N+](=O)[O-])c(C)c2)cc1Cl [MIT 9952-224]
35 | 0.56 | 0.59 | C/C(CCS(=O)(=O)c1ccc(C)cc1)=N\NC(N)=S [MIT 9952-225]
36 | 0.58 | 0.53 | C=CCc1c(C)nc(-c2ccccc2)nc1Nc1ccc([N+](=O)[O-])cc1 [MIT 9952-227]
37 | 0.46 | 0.63 | Cc1ccsc1/C=N/NC(=O)c1cccc([N+](=O)[O-])c1 [MIT 9952-228]
38 | 0.58 | 0.58 | O=C(Nc1ccc2c(c1)S(=O)(=O)c1cc(NC(=O)c3cccc4ccccc34)ccc1-2)c1cccc2ccccc12 [MIT 9952-229]
39 | 0.61 | 0.51 | Nc1cc2cccnc2c2ncccc12 [MIT 9952-230]
40 | 0.46 | 0.54 | O=C(Nc1cc(Sc2nc3ccccc3s2)cc([N+](=O)[O-])c1)c1ccc(F)c(F)c1 [MIT 9952-231]
41 | 0.61 | 0.56 | O=C(Nc1nc(-c2ccccc2)cs1)Nc1ccc(Cl)cc1Cl [MIT 9952-232]
42 | 0.57 | 0.38 | Cc1cccc(C(=O)Nc2cccc(-c3nc4c(C)cccc4o3)c2)c1 [MIT 9952-236]
43 | 0.53 | 0.39 | COc1cc2ccccc2cc1C(=O)Nc1cccc(C)c1 [MIT 9952-237]
44 | 0.61 | 0.6 | COc1ccc([N+](=O)[O-])cc1NC(=O)c1ccccc1 [MIT 9952-238]
45 | 0.64 | 0.71 | COc1cccc(/C=N/Nc2ccc([N+](=O)[O-])cc2)c1 [MIT 9952-240]
46 | 0.48 | 0.52 | O=S(=O)([O-])C(F)(F)F.O=[N+]([O-])c1ccc([I+]c2ccc(F)cc2)cc1 [MIT 9952-241]
47 | 1.26 | 1.26 | C/C(=N\NC(=O)c1ccccc1)c1ccccc1C(=O)O [MIT 9952-242]
48 | 0.56 | 0.54 | Brc1ccc2c(c1)OCCSCCOCCOCCSCCO2 [MIT 9952-244]
49 | 0.56 | 0.52 | Cc1ccc2c(c1)/C(=C/c1ccc([N+](=O)[O-])cc1)c1cccnc1-2 [MIT 9952-246]
50 | 0.63 | 0.64 | CCCCCOc1ccc(-c2ccc(C(=O)NC(NCc3ccccc3)C(Cl)(Cl)Cl)cc2)cc1 (stereo not shown) [MIT 9952-247]
51 | 0.68 | 0.66 | CCc1nnc(N2CCN(c3ncnc4c3cnn4-c3ccccc3)CC2)s1 [MIT 9952-248]

Row | SMILES | ENDOHDL Test 1 | ENDOHDL Test 2
52 | O=[N+]([O-])c1ccc(N/N=C(/CS(=O)(=O)c2ccccc2)c2ccccc2)c([N+](=O)[O-])c1 [MIT 9952-200] | 0.73 | 0.8
53 | Cc1c([N+](=O)[O-])cc(C(=O)Nc2cccc(-c3nc4ccccc4o3)c2)cc1[N+](=O)[O-] [MIT 9952-210] | 0.59 | 0.56
54 | O=C(Nc1ccc(Cl)c([N+](=O)[O-])c1)c1cccc(C(=O)Nc2ccc(Cl)c([N+](=O)[O-])c2)c1 [MIT 9952-219] | 0.55 | 0.55
55 | COc1ccc(NC(=O)c2cc([N+](=O)[O-])c(C)c([N+](=O)[O-])c2)cc1Cl [MIT 9952-226] | 0.5 | 0.56
56 | COc1ccc(OC)c(NC(=O)c2cc([N+](=O)[O-])c(C)c([N+](=O)[O-])c2)c1 [MIT 9952-233] | 0.59 | 0.33
57 | O=C(Nc1ccc(-c2nc3cc(NC(=O)c4ccccc4[N+](=O)[O-])ccc3o2)cc1)c1ccccc1[N+](=O)[O-] [MIT 9952-234] | 0.58 | 0.54
58 | Cc1c([N+](=O)[O-])cc(C(=O)Nc2cccc(NC(=O)c3ccccc3)c2)cc1[N+](=O)[O-] [MIT 9952-235] | 0.62 | 0.33
59 | C/C(=N\Nc1ccc([N+](=O)[O-])cc1)c1ccc([N+](=O)[O-])cc1 [MIT 9952-245] | 0.54 | 0.64
